The source of these data is ChEMBL document CHEMBL1629478, “Novel alkyl- and arylcarbamate derivatives with N-benzylpiperidine and N-benzylpiperazine moieties as cholinesterases inhibitors” (Eur J Med Chem, 2010).

In test [1] the target is Acetylcholinesterase (Electrophorus electricus) (UniProt O42275). In words: Inhibition of electric eel AChE at 100 uM preincubated for 5 mins by Ellman's method. In general terms: Ellman's reagent forms a yellow product with free thiols.
Test [2] concerns the target Cholinesterase (Equus caballus) (UniProt P81908). Kind of test: Inhibition of horse serum BChE at 100 uM preincubated for 5 mins by Ellman's method.
For the next test, the target named is Cholinesterase (Equus caballus, UniProt P81908).
Cholinesterase, sequence (P81908 whole entry): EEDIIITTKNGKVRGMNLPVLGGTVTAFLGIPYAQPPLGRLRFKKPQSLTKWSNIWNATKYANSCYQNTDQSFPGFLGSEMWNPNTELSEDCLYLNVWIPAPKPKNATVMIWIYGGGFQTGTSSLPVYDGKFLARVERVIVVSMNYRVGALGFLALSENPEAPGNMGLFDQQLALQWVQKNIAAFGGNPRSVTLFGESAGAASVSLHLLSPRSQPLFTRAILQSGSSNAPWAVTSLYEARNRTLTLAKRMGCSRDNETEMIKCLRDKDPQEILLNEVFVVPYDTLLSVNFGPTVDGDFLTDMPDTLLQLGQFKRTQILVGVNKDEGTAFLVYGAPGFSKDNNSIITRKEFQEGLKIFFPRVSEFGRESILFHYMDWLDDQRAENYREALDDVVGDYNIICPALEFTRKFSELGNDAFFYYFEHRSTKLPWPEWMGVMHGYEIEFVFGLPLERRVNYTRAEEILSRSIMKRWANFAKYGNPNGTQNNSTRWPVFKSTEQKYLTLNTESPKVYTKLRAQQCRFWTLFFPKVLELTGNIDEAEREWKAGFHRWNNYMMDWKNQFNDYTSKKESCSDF
Test [3] concerns the target Acetylcholinesterase (Electrophorus electricus) (UniProt O42275). In words: Non-competitive inhibition of electric eel AChE by Lineweaver-Burk plot analysis.
Test [4] has as its target Cholinesterase (Equus caballus) (UniProt P81908). In words: Mixed-type inhibition of horse serum BChE by Lineweaver-Burk plot analysis.

pIC50: −log10 of the molar value. Activity calls are given as the source filed them. The calls are words filed in the database; no cut-off is given here.

Acetylcholinesterase (Electrophorus electricus), sequence (O42275 24-633 limits assumed): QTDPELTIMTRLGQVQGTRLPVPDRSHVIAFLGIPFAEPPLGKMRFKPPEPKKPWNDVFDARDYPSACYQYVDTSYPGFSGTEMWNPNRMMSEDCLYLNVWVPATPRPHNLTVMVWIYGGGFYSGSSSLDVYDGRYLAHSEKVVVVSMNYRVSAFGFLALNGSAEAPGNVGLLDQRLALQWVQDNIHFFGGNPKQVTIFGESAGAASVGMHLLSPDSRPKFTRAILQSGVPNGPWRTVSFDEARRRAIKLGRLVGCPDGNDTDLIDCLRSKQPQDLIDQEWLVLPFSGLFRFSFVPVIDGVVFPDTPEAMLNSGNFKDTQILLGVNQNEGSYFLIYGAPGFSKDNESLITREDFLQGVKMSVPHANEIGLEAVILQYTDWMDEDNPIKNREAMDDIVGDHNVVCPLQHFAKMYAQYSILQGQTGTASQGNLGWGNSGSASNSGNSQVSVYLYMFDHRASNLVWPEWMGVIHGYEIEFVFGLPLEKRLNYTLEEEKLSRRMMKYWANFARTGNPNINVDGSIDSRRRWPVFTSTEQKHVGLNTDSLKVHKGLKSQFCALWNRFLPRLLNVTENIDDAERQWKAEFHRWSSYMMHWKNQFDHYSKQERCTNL
Cholinesterase (Equus caballus), sequence (P81908 whole entry): as the sequence (P81908 whole entry) above

Turning to `CC(C)NC(=O)Oc1ccc(CC(=O)NC2CCN(Cc3ccccc3)CC2)cc1`, the results for the inhibition in test [1] and in test [2] were 19.2% and 63.1%, respectively. In addition, the pIC50 (commonly the IC50 on a negative log10 scale, so that one unit is a factor of ten) at Cholinesterase was 4.74.
`CN(C)C(=O)Oc1ccc(CC(=O)N2CCN(Cc3ccccc3)CC2)cc1`: the inhibition (in general, the relative decrease from the control value, in per cent) in test [1] is “inactive”. The same compound had an inhibition in test [2] of 32.5%.
Take `CN(C)C(=O)Oc1cccc(CC(=O)N2CCN(Cc3ccccc3)CC2)c1`: in test [1], the inhibition result was “inactive”. Besides, in test [2], the inhibition stood at 79%. On Cholinesterase, this compound showed a pIC50 of 4.63.
Consider `CCCNC(=O)Oc1ccc(CC(=O)N2CCN(Cc3ccccc3)CC2)cc1`, for which the inhibition result in test [1] was “inactive”. The inhibition in test [2] worked out at 88.3%. Also, on Cholinesterase, the pIC50 is 4.49.
Regarding `O=C(Cc1cccc(O)c1)NC1CCN(Cc2ccccc2)CC1`, the inhibition in test [1] is 38.1%; in test [2], 49.8%.
For the compound `CCNC(=O)Oc1cccc(CC(=O)N2CCN(Cc3ccccc3)CC2)c1`, in test [1], the inhibition result is “inactive”. The inhibition in test [2] turned out to be 62.5%. For the same compound, the negative logarithm of the IC50 (pIC50) against Cholinesterase was 4.26.
For the compound `CCCCNC(=O)Oc1cccc(CC(=O)N2CCN(Cc3ccccc3)CC2)c1`, in test [1], the inhibition result is “inactive”. In addition, the inhibition in test [2] was determined as 92.7%. The compound also had a pIC50 against Cholinesterase of 5.00.
The matching figures for `CCCCNC(=O)Oc1cccc(CC(=O)NC2CCN(Cc3ccccc3)CC2)c1`: 39.9%, 92% and 5.24.
As for `O=C(Cc1ccc(O)cc1)NC1CCN(Cc2ccccc2)CC1`, the inhibition in test [1] was determined as 15.2%; in test [2] it was 45.6%.
`CCCNC(=O)Oc1ccc(CC(=O)NC2CCN(Cc3ccccc3)CC2)cc1`: the inhibition is 33.8% in test [1] and 95.1% in test [2]. The same compound gave a pIC50 against Cholinesterase of 5.03.
In the same order, the values of `CCNC(=O)Oc1ccc(CC(=O)N2CCN(Cc3ccccc3)CC2)cc1` are “inactive”, 83.4% and 4.36.
The matching figures for `CCNC(=O)Oc1cccc(CC(=O)NC2CCN(Cc3ccccc3)CC2)c1`: 28.5%, 68.6% and 4.43.
In the case of `CC(C)NC(=O)Oc1ccc(CC(=O)N2CCN(Cc3ccccc3)CC2)cc1`, the inhibition result in test [1] was “inactive”. The same compound came in with an inhibition in test [2] of 72.2%. Moreover, the pIC50 on Cholinesterase is 4.28.
For `CCCCNC(=O)Oc1ccc(CC(=O)N2CCN(Cc3ccccc3)CC2)cc1`, the inhibition result in test [1] was “inactive”. This compound showed an inhibition in test [2] of 83.1%. The compound also gave a pIC50 against Cholinesterase of 4.78.
In the same order, the values of `CCCCNC(=O)Oc1ccc(CC(=O)NC2CCN(Cc3ccccc3)CC2)cc1` are 43.7%, 63.4% and 4.93.
For `O=C(Cc1ccc(O)cc1)N1CCN(Cc2ccccc2)CC1`, the inhibition entry in test [1] was “inactive”. In addition, the inhibition in test [2] was determined as 45.3%.
On to `Cc1ccccc1NC(=O)Oc1ccc(CC(=O)NC2CCN(Cc3ccccc3)CC2)cc1`, for which the inhibition was determined as 24.7% in test [1] and 46.9% in test [2].
As for `CC(C)NC(=O)Oc1cccc(CC(=O)NC2CCN(Cc3ccccc3)CC2)c1`, the inhibition in test [1] is 34.9%; in test [2], 72.2%. The compound also had a pIC50 against Cholinesterase of 4.53.
The matching figures for `CN(C)C(=O)Oc1ccc(CC(=O)NC2CCN(Cc3ccccc3)CC2)cc1`: 46.2%, 89.8% and 5.05.
Consider `CCNC(=O)Oc1ccc(CC(=O)NC2CCN(Cc3ccccc3)CC2)cc1`, for which the results for the inhibition in test [1] and in test [2] were 23.4% and 90.4%, respectively. In addition, the pIC50 at Cholinesterase is 4.97.
Take `O=C(Cc1cccc(O)c1)N1CCN(Cc2ccccc2)CC1`: the inhibition entry in test [1] was “inactive”. For the same compound, in test [2], the inhibition worked out at 31.5%.
In the case of `CC(C)NC(=O)Oc1cccc(CC(=O)N2CCN(Cc3ccccc3)CC2)c1`, in test [1], the inhibition result is “inactive”. In addition, in test [2], the inhibition worked out at 77.7%. This compound gave a pIC50 against Cholinesterase of 4.45.
Take `CN(C)C(=O)Oc1cccc(CC(=O)NC2CCN(Cc3ccccc3)CC2)c1`: the inhibition was determined as 50.5% in test [1] and 82.1% in test [2]. In addition, the inhibition entry in test [3] and in test [4] was “Active” throughout. For the same compound, on Cholinesterase, the pIC50 is 4.66.
